Legend:
[1] = tested on: TNBC cells (MDA-MB-231, MDA-MB-436, MDA-MB-468, MDA-MB-157, HCC1937, BT-20); assay: Alamar blue viability assay, TNBC cell lines with or without OPG-Fc; type: cell-based, human; settings: 7 days
Protocol: (§1) Cells were seeded in 96 well-plates (2-5×10^4 cells/mL), with or without paclitaxel (Y0000698, Sigma), doxorubicin hydrochloride (D2975000, Sigma), palbociclib (PD 0332991 isethionate, PZ0199, Sigma), ribociclib (LEE011 succinate, SC-488174, Santa Cruz), abemaciclib mesylate (LY2835219, S7158, Selleckchem), fulvestrant (S1191, Selleckchem), everolimus (#73122, StemCell Technologies), full length human OPG (SRP3132, Sigma), and OPG-Fc (Amgen). Medium was replaced every 2 days. After 7 days, 1:10 Alamar blue (Invitrogen) was added to each well and fluorescence was measured 2 hours after incubation (excitation 560 nm; emission 590 nm) in an Infinite M200 microplate reader (Tecan).
Medium was replaced every two days, and viability was assessed by Alamar blue assay.
Cells were seeded in 96 well-plates (2-5×10^4 cells/mL), with or without palbociclib (PD 0332991 isethionate, PZ0199, Sigma), ribociclib (LEE011 succinate, SC-488174, Santa Cruz), abemaciclib mesylate (LY2835219, S7158, Selleckchem), 3-ATA (sc-202414, Santa Cruz), Cdk4 inhibitor Ill (sc-202988, Santa Cruz), seliciclib (S1153, Selleckchem), and OPG-Fc (PL-33324, Amgen). Medium was replaced every 2 days. After 7 days, 1:10 Alamar blue (Invitrogen) was added to each well and fluorescence was measured 2 hours after incubation (excitation 560 nm; emission 590 nm) in an Infinite M200 microplate reader (Tecan).

MDA-MB-231 TNBC cells = assay: Alamar blue viability assay, MDA-MB-231 TNBC cells with or without RANK knockdown; type: cell-based, human; settings: 7 days
Protocol: For lentiviral transduction, MDA-MB-231GFP+Luc+ cells were seeded in 24-well plates, at a density of 4×10^4 cells/well. 24 hours after seeding, medium was replaced by fresh medium containing 8 μg/ml Polybrene (Sigma) and RANK shRNA (h) lentiviral particles (15-20 μl/well; sc-42960-V, Santa Cruz) or control shRNA lentiviral particles (15-20 μl/well; sc-108080, Santa Cruz). Cells were selected with 0.5 μg/mL Puromycin dihydrochloride (Sigma) starting three days after transduction.
as §1
RANK KD clones were first generated for use in sensitivity assays. Briefly, MCF-7GFP+Luc+ cells were seeded in multi-well plates and then exposed to fresh medium comprising RANK shRNA (h) lentiviral particles or control shRNA lentiviral particles. The transduced cells were selected using Puromycin dihydrochloride starting three days post-transduction.

MDA-MB-231 xenografts = assay: TNBC ectopic xenograft model; type: in vivo, NSG mice; settings: Palbociclib 30 mg/Kg/day p.o., 21 days; xenografts not regressed
Protocol: Based on these findings TNBC BC sensitivity to CDK4/6 inhibitors (palbociclib) in combination with RANK pathway blockage was tested in a TNBC ectopicxenograft model (FIG. 27). Nod scid gama (NSG) mice were inoculated subcutaneously and bilaterally in the flanks (n=5/group). Tumors were measured with caliper. When tumors reach approximately 100 mm^3 mice were randomized based on tumor size and treated according to the experimental protocol. Palbociclib was used at 30 mg/Kg/day for 21 consecutive days, as the human equivalent dose (HED) of 125 mg/day approved for palbociclib is equivalent to […] in mice (Nair and Jacob, J Basic Clin Pharm. 2016 March; 7(2):27-31). OPG-Fc was used at 10 mg/Kg 3×/week (HED 291.6 mg/15 days).
Nod scid gama (NSG) mice were inoculated subcutaneously and bilaterally in the flanks with MDA-MB-231 cells (n=4-5/group). Six weeks post inoculation mice were randomized based on tumor size and treated with OPG-Fc 10 mg/Kg i.p. 3× per week; Palbociclib 30 mg/Kg/day p.o. or the combination. […] The data are presented as mean±SEM. p-value was calculated using ANOVA, *p<0.05, **p<0.01, ***p<0.001.
Tumor growth was monitored every two days with caliper and tumor volume calculated using the formula Tvol=½(length×width^2). […]
TRAcP 5b was quantified in mouse serum using the MouseTRAP (TRAcP 5b) ELISA kit (IDS), according to the manufacturer instructions.

## CC(=O)c1c(C)c2cnc(Nc3ccc(N4CCNCC4)cn3)nc2n(C2CCCC2)c1=O [palbociclib]
[1]
  sensitivity of TNBC cells to CDK4/6 inhibitor (cell viability): resistance
MDA-MB-231 TNBC cells; MDA-231 cells and MDA-231 shControl cells
  sensitivity to CDK4/6 inhibitor (cell viability): resistance
MDA-MB-231 TNBC cells; TNBC RANK KD cells (MDA-231 shRANK) vs RANK expressing cells
  sensitivity to CDK4/6 inhibitor (cell viability): restored sensitivity
MDA-MB-231 xenografts
  tumor growth (tumor volume): slowing of tumor growth

From US20220195059A1, “Rank Pathway Inhibitors in Combination with CDK Inhibitors” (INSTITUTO DE MEDICINA MOLECULAR JOÃO LOBO ANTUNES, priority 2019, published 2022)
